According to patent US8871934B2, “Fluorene compound and pharmaceutical use thereof” (Japan Tobacco Inc., priority 2008, dated 2014):
Where two headings read alike, the source gives them in different places.

Molecular target: human PDHK2 (hPDHK2) (Homo sapiens (Human), UniProt Q15119)
Assay: Inhibitory action of PDHK activity in vitro (kinase reaction, residual PDH activity measured)
Type: biochemical
[1] = PDHK inhibitory activity, class symbol of IC50
[2] = read-out: PDHK inhibitory activity IC50
[3] = class symbol of IC50, read-out: PDHK inhibitory activity

| SMILES | IC50 [1] [nM] | IC50 [2] [nM] | IC50 [3] [nM] |
| --- | --- | --- | --- |
| CNCCCOc1ccc2c(c1)C(O)(C(F)(F)F)c1ccccc1-2 (centres unmarked) [compound 332] | 100 to 1000 | 912 |  |
| CN(C)CCCOc1ccc2c(c1)C(O)(C(F)(F)F)c1ccccc1-2 (centres unmarked) [compound 333] | 100 to 1000 | 924 |  |
| CC(=O)N(C)CCCOc1ccc2c(c1)C(O)(C(F)(F)F)c1ccccc1-2 (centres unmarked) [compound 334] | 100 to 1000 | 674 |  |
| OC1(C(F)(F)F)c2ccccc2-c2c(-c3cncnc3)cc(Cl)cc21 (centres unmarked) [compound 335] | < 100 | 80 |  |
| NCc1cccc2c1-c1ccccc1C2(O)C(F)(F)F (centres unmarked) [compound 336] | > 1000 | > 10000 |  |
| O=C(c1ccc2c(c1)C(O)(C(F)(F)F)c1ccccc1-2)N1CC(C(=O)N2CCC(O)C2)C1 (centres unmarked) [compound 337] | 100 to 1000 | 499 |  |
| Cc1cc(C(=O)NCCCCO)cc2c1-c1ccccc1C2(O)C(F)(F)F (centres unmarked) [compound 338] |  | > 1000 | > 1000 |
| O=C(c1cc(Cl)c2c(c1)C(O)(C(F)(F)F)c1ccccc1-2)N1CC(O)C1 (centres unmarked) [compound 339] | 100 to 1000 | 177 |  |
| CC(=O)NCCCOc1ccc2c(c1)C(O)(C(F)(F)F)c1ccccc1-2 (centres unmarked) [compound 340] | > 1000 | 1590 |  |
| CC(C)(C)OC(=O)c1ccc(-c2cc(-c3cccnc3)c3c(c2)C(O)(C(F)(F)F)c2ccccc2-3)cc1 (centres unmarked) [compound 341] | < 100 | 79 |  |
| O=C(O)c1ccc(-c2cc(-c3cccnc3)c3c(c2)C(O)(C(F)(F)F)c2ccccc2-3)cc1 (centres unmarked) [compound 342] | < 100 | 47 |  |
| COC(=O)c1cc(-c2cnn(C)c2)c2c(c1)C(O)(C(F)(F)F)c1ccccc1-2 (centres unmarked) [compound 343] | < 100 | 53 |  |
| Cn1cc(-c2cc(C(=O)O)cc3c2-c2ccccc2C3(O)C(F)(F)F)cn1 (centres unmarked) [compound 344] |  | > 1000 | > 1000 |
| Cn1cc(-c2cc(C(=O)NCCCCO)cc3c2-c2ccccc2C3(O)C(F)(F)F)cn1 (centres unmarked) [compound 345] | 100 to 1000 | 121 |  |
| CN(CCO)C(=O)c1cc(-c2cnn(C)c2)c2c(c1)C(O)(C(F)(F)F)c1ccccc1-2 (centres unmarked) [compound 346] | 100 to 1000 | 200 |  |
| CCn1cc(-c2cccc3c2-c2ccccc2C3(O)C(F)(F)F)cn1 (centres unmarked) [compound 347] | < 100 | 88 |  |
| CN(CCOc1ccc2c(c1)C(O)(C(F)(F)F)c1ccccc1-2)C(=O)CO (centres unmarked) [compound 348] | 100 to 1000 | 634 |  |
| NC(=O)COC1CN(C(=O)c2cc(Cl)c3c(c2)C(O)(C(F)(F)F)c2ccccc2-3)C1 (centres unmarked) [compound 349] | 100 to 1000 | 126 |  |
| Cc1cc(C(=O)N2CC(O)C2)cc2c1-c1ccccc1C2(O)C(F)(F)F (centres unmarked) [compound 350] | 100 to 1000 | 152 |  |
| Cc1cc(C(=O)N2CC(CO)C2)cc2c1-c1ccccc1C2(O)C(F)(F)F (centres unmarked) [compound 351] | 100 to 1000 | 168 |  |
| Cc1cc(C(=O)N2CC(OCC(N)=O)C2)cc2c1-c1ccccc1C2(O)C(F)(F)F (centres unmarked) [compound 352] | 100 to 1000 | 109 |  |
| COC(=O)Cc1ccc2c(c1)C(O)(C(F)(F)F)c1ccccc1-2 (centres unmarked) [compound 353] | > 1000 | 7400 |  |
| CN(C)C(=O)c1cc(-c2cnn(C)c2)c2c(c1)C(O)(C(F)(F)F)c1ccccc1-2 (centres unmarked) [compound 354] | < 100 | 71 |  |

| SMILES | IC50 [1] [nM] | IC50 [2] [nM] | IC50 [3] [nM] |
| --- | --- | --- | --- |
| Cn1cc(-c2cc(C(=O)N3CCC3)cc3c2-c2ccccc2C3(O)C(F)(F)F)cn1 (centres unmarked) [compound 355] | < 100 | 40 |  |
| Cn1cc(-c2cc(C(=O)N3CCCC3)cc3c2-c2ccccc2C3(O)C(F)(F)F)cn1 (centres unmarked) [compound 356] | < 100 | 53 |  |
| COC(=O)COc1ccc2c(c1)C(O)(C(F)(F)F)c1ccccc1-2 (centres unmarked) [compound 357] | > 1000 | 1940 |  |
| Cn1cc(-c2cc(OCC(=O)O)cc3c2-c2ccccc2C3(O)C(F)(F)F)cn1 (centres unmarked) [compound 358] | < 100 | 34 |  |
| O=C1CCCN1CCOc1ccc2c(c1)C(O)(C(F)(F)F)c1ccccc1-2 (centres unmarked) [compound 359] | 100 to 1000 | 187 |  |
| O=C(COc1ccc2c(c1)C(O)(C(F)(F)F)c1ccccc1-2)N1CCCC1 (centres unmarked) [compound 360] | 100 to 1000 | 548 |  |
| O=C(COc1ccc2c(c1)C(O)(C(F)(F)F)c1ccccc1-2)N1CCCCC1 (centres unmarked) [compound 361] | 100 to 1000 | 436 |  |
| O=C(COc1ccc2c(c1)C(O)(C(F)(F)F)c1ccccc1-2)N1CCOCC1 (centres unmarked) [compound 362] | > 1000 | 1080 |  |
| NC(=O)COc1cc(-c2cncnc2)c2c(c1)C(O)(C(F)(F)F)c1ccccc1-2 (centres unmarked) [compound 363] | < 100 | 47 |  |
| COC(=O)c1cc(-c2cncnc2)c2c(c1)C(O)(C(F)(F)F)c1ccccc1-2 (centres unmarked) [compound 364] | 100 to 1000 | 178 |  |
| O=C(COc1ccc2c(c1)C(O)(C(F)(F)F)c1ccccc1-2)NCCO (centres unmarked) [compound 365] | > 1000 | 1330 |  |
| CN(CCO)C(=O)COc1ccc2c(c1)C(O)(C(F)(F)F)c1ccccc1-2 (centres unmarked) [compound 366] | > 1000 | 2170 |  |
| O=C(O)c1cc(-c2cncnc2)c2c(c1)C(O)(C(F)(F)F)c1ccccc1-2 (centres unmarked) [compound 367] |  | > 1000 | > 1000 |
| CN(C)C(=O)c1cc(-c2cncnc2)c2c(c1)C(O)(C(F)(F)F)c1ccccc1-2 (centres unmarked) [compound 368] | 100 to 1000 | 180 |  |
| O=C(c1cc(-c2cncnc2)c2c(c1)C(O)(C(F)(F)F)c1ccccc1-2)N1CCC1 (centres unmarked) [compound 369] | < 100 | 81 |  |
| O=C(c1cc(-c2cncnc2)c2c(c1)C(O)(C(F)(F)F)c1ccccc1-2)N1CCCC1 (centres unmarked) [compound 370] | 100 to 1000 | 114 |  |
| O=C(NCCCCO)c1cc(-c2cncnc2)c2c(c1)C(O)(C(F)(F)F)c1ccccc1-2 (centres unmarked) [compound 371] | 100 to 1000 | 617 |  |
| CN(CCO)C(=O)c1cc(-c2cncnc2)c2c(c1)C(O)(C(F)(F)F)c1ccccc1-2 (centres unmarked) [compound 372] | 100 to 1000 | 564 |  |
| Cn1cc(-c2cc(C(=O)N3CC(O)C3)cc3c2-c2ccccc2C3(O)C(F)(F)F)cn1 (centres unmarked) [compound 373] | < 100 | 49 |  |
| Cn1cc(-c2cc(C(=O)N3CC(CO)C3)cc3c2-c2ccccc2C3(O)C(F)(F)F)cn1 (centres unmarked) [compound 374] | < 100 | 49 |  |
| Cn1cc(-c2cc(C(=O)N3CC(OCCO)C3)cc3c2-c2ccccc2C3(O)C(F)(F)F)cn1 (centres unmarked) [compound 375] | < 100 | 50 |  |
| Cn1cc(-c2cc(C(=O)N3CCC(O)C3)cc3c2-c2ccccc2C3(O)C(F)(F)F)cn1 (centres unmarked) [compound 376] | < 100 | 85 |  |
| Cn1cc(-c2ccc3c(c2)C(O)(C(F)(F)F)c2ccccc2-3)cn1 (centres unmarked) [compound 377] | 100 to 1000 | 189 |  |

| SMILES | IC50 [1] [nM] | IC50 [2] [nM] | IC50 [3] [nM] |
| --- | --- | --- | --- |
| COc1cnc2c(c1)C(O)(C(F)(F)F)c1ccccc1-2 (centres unmarked) [compound 378] | 100 to 1000 | 703 |  |
| CC(=O)N(CCO)CCOc1ccc2c(c1)C(O)(C(F)(F)F)c1ccccc1-2 (centres unmarked) [compound 379] | 100 to 1000 | 351 |  |
| CC(=O)N(C)CC(C)Oc1ccc2c(c1)C(O)(C(F)(F)F)c1ccccc1-2 (centres unmarked) [compound 380] | > 1000 | 1490 |  |
| CC(=O)N(C)C(C)COc1ccc2c(c1)C(O)(C(F)(F)F)c1ccccc1-2 (centres unmarked) [compound 381] | 100 to 1000 | 495 |  |
| O=C(COc1ccc2c(c1)C(O)(C(F)(F)F)c1ccccc1-2)N1CCC[C@@H]1CO (some centres unmarked) [compound 382] | 100 to 1000 | 863 |  |
| O=C(COc1ccc2c(c1)C(O)(C(F)(F)F)c1ccccc1-2)N1CCC[C@H]1CO (some centres unmarked) [compound 383] | > 1000 | 1220 |  |
| O=C(O)CCCCOc1cc(Cl)c2c(c1)C(O)(C(F)(F)F)c1ccccc1-2 (centres unmarked) [compound 384] | 100 to 1000 | 219 |  |
| NC(=O)COc1cc(Cl)c2c(c1)C(O)(C(F)(F)F)c1ccccc1-2 (centres unmarked) [compound 385] | 100 to 1000 | 234 |  |
| CC(C)Cn1cc(-c2cccc3c2-c2ccccc2C3(O)C(F)(F)F)cn1 (centres unmarked) [compound 386] | < 100 | 89 |  |
| OCCCCCOc1cc(Cl)c2c(c1)C(O)(C(F)(F)F)c1ccccc1-2 (centres unmarked) [compound 387] | < 100 | 63 |  |
| CC(=O)N(C)CCOc1cc(Cl)c2c(c1)C(O)(C(F)(F)F)c1ccccc1-2 (centres unmarked) [compound 388] | < 100 | 63 |  |
| O[C@H]1CCN(CCOc2ccc3c(c2)C(O)(C(F)(F)F)c2ccccc2-3)C1 (some centres unmarked) [compound 389] | 100 to 1000 | 822 |  |
| O[C@@H]1CCN(CCOc2ccc3c(c2)C(O)(C(F)(F)F)c2ccccc2-3)C1 (some centres unmarked) [compound 390] | 100 to 1000 | 954 |  |
| O=C(COc1ccc2c(c1)C(O)(C(F)(F)F)c1ccccc1-2)N1CCC1 (centres unmarked) [compound 391] | 100 to 1000 | 485 |  |
| Cn1cc(-c2cc(C(=O)N3CCC[C@@H]3CO)cc3c2-c2ccccc2C3(O)C(F)(F)F)cn1 (some centres unmarked) [compound 392] | 100 to 1000 | 200 |  |
| Cn1cc(-c2cc(C(=O)N3CCC[C@H]3CO)cc3c2-c2ccccc2C3(O)C(F)(F)F)cn1 (some centres unmarked) [compound 393] | 100 to 1000 | 176 |  |
| Cn1cc(-c2cc(C(=O)N3CCC(CO)C3)cc3c2-c2ccccc2C3(O)C(F)(F)F)cn1 (centres unmarked) [compound 394] | < 100 | 58 |  |
| O=C1CCCN1CCCOc1ccc2c(c1)C(O)(C(F)(F)F)c1ccccc1-2 (centres unmarked) [compound 395] | 100 to 1000 | 699 |  |
| O=C(COc1ccc2c(c1)C(O)(C(F)(F)F)c1ccccc1-2)N1CCC(O)CC1 (centres unmarked) [compound 396] | 100 to 1000 | 627 |  |
| O=C(COc1ccc2c(c1)C(O)(C(F)(F)F)c1ccccc1-2)N1CCC(CO)CC1 (centres unmarked) [compound 397] | 100 to 1000 | 424 |  |
| CC(=O)N(C)CCOc1cnc2c(c1)C(O)(C(F)(F)F)c1ccccc1-2 (centres unmarked) [compound 398] | 100 to 1000 | 119 |  |
